Results reported in patent US4229204A, “Trifluoromethylphenyl isoxazolyl benzoates” (Monsanto Company, priority 1978, dated 1980).

Experiments:
Format in all cases: in vivo
Wild Buckwheat = assay: Pre-emergent herbicidal test; conditions: 2 WAT
Protocol: (§1) The pre-emergent test was conducted as follows:
(§2) A good grade of top soil was placed in aluminum pans and compacted to a depth of three-eighths to one-half inch from the top of the pan. On the top of the soil was placed a predetermined number of seeds or vegetative propagules of various plant species which were pressed into the soil surface. The soil required to level fill the pans after seeding or adding vegetative propagules was weighed into a pan. A known amount of the active ingredient applied in a solvent or as a wettable powder and the soil were thoroughly mixed, and used as a cover layer for prepared pans.
(§3) The herbicidal rating was obtained by means of a fixed scale based on the percent injury of each plant species. The ratings are defined as follows: […]

Rice = assay: Pre-emergent herbicidal test; conditions: 2 WAT
Protocol: as §1, §2, §3

Wheat = assay: Pre-emergent herbicidal test; conditions: 2 WAT
Protocol: as §1, §2, §3

Panicum Spp. = assay: Pre-emergent herbicidal test; conditions: 2 WAT
Protocol: as §1, §2, §3

Crabgrass = assay: Pre-emergent herbicidal test; conditions: 2 WAT
Protocol: as §1, §2, §3

Hemp Sesbania = assay: Pre-emergent herbicidal test; conditions: 2 WAT
Protocol: as §1, §2, §3

Soybean = assay: Pre-emergent herbicidal test; conditions: 2 WAT
Protocol: as §1, §2, §3

Sugarbeet = assay: Pre-emergent herbicidal test; conditions: 2 WAT
Protocol: as §1, §2, §3

Sorghum = assay: Pre-emergent herbicidal test; conditions: 2 WAT
Protocol: as §1, §2, §3

Cocklebur [1] = assay: Post-emergent herbicidal test; conditions: 4 WAT, 11.2 kg/h
Protocol: (§4) The post-emergent tests were conducted as follows:
(§5) The active ingredients are applied in spray form to two or three week old specimens of various plant species. The spray, a solution or wettable powder suspension containing the appropriate rate of active ingredient to give the desired test rate and a surfactant, is applied to the plants.
(§6) The compounds were also tested by utilizing the above procedure on the following plant species: […]

Morningglory [2] = assay: Post-emergent herbicidal test; conditions: 4 WAT, 11.2 kg/h
Protocol: as §4, §5, §6

Barnyardgrass [3] = assay: Post-emergent herbicidal test; conditions: 4 WAT, 11.2 kg/h
Protocol: as §4, §5, §6

Downy Brome [4] = assay: Post-emergent herbicidal test; conditions: 4 WAT, 11.2 kg/h
Protocol: as §4, §5, §6

Quackgrass [5] = assay: Post-emergent herbicidal test; conditions: 4 WAT, 11.2 kg/h
Protocol: as §4, §5, §6

Johnsongrass [6] = assay: Post-emergent herbicidal test; conditions: 4 WAT, 11.2 kg/h
Protocol: as §4, §5, §6

Lambsquarters [7] = assay: Post-emergent herbicidal test; conditions: 4 WAT, 11.2 kg/h
Protocol: as §4, §5, §6

Canada Thistle [8] = assay: Post-emergent herbicidal test; conditions: 4 WAT, 11.2 kg/h
Protocol: as §4, §5, §6

Yellow Nutsedge [9] = assay: Post-emergent herbicidal test; conditions: 4 WAT, 11.2 kg/h
Protocol: as §4, §5, §6

Velvetleaf [10] = assay: Post-emergent herbicidal test; conditions: 4 WAT, 11.2 kg/h
Protocol: as §4, §5, §6

Smartweed [11] = assay: Post-emergent herbicidal test; conditions: 4 WAT, 11.2 kg/h
Protocol: as §4, §5, §6

Cocklebur [12] = assay: Pre-emergent herbicidal test
Protocol: as §1, §2, §3, §6

Morningglory [13] = assay: Pre-emergent herbicidal test
Protocol: as §1, §2, §3, §6

Barnyardgrass [14] = assay: Pre-emergent herbicidal test
Protocol: as §1, §2, §3, §6

Downy Brome [15] = assay: Pre-emergent herbicidal test
Protocol: as §1, §2, §3, §6

Quackgrass [16] = assay: Pre-emergent herbicidal test; conditions: 4 WAT, 11.2 kg/h
Protocol: as §1, §2, §3, §6

Johnsongrass [17] = assay: Pre-emergent herbicidal test; conditions: 4 WAT, 11.2 kg/h
Protocol: as §1, §2, §3, §6

Lambsquarters [18] = assay: Pre-emergent herbicidal test
Protocol: as §1, §2, §3, §6

Canada Thistle [19] = assay: Pre-emergent herbicidal test; conditions: 4 WAT, 11.2 kg/h
Protocol: as §1, §2, §3, §6

Yellow Nutsedge [20] = assay: Pre-emergent herbicidal test; conditions: 4 WAT, 11.2 kg/h
Protocol: as §1, §2, §3, §6

Velvetleaf [21] = assay: Pre-emergent herbicidal test
Protocol: as §1, §2, §3, §6

Smartweed [22] = assay: Pre-emergent herbicidal test
Protocol: as §1, §2, §3, §6
Further: ranges in brackets are in %.

CCCCOC(=O)c1ccccc1-c1cc(-c2cccc(C(F)(F)F)c2)no1 [Example 6, n-Butyl 2-[3-[3-(Trifluoromethyl)Phenyl]-5-Isoxazolyl]Benzoate]
herbicidal rating (Wild Buckwheat; 0.28 kg/h): 3 (75-100)
herbicidal rating (Wild Buckwheat; 1.12 kg/h): 2 (50-74)
herbicidal rating (Wild Buckwheat; 5.60 kg/h): 3 (75-100)
herbicidal rating (Rice; 0.28 kg/h): 2 (50-74)
herbicidal rating (Rice; 1.12 kg/h): 3 (75-100)
herbicidal rating (Rice; 5.60 kg/h): 3 (75-100)
herbicidal rating (Wheat; 0.28 kg/h): 0 (0-24)
herbicidal rating (Wheat; 1.12 kg/h): 1 (25-49)
herbicidal rating (Wheat; 5.60 kg/h): 1 (25-49)
herbicidal rating (Panicum Spp.; 0.28 kg/h): 3 (75-100)
herbicidal rating (Panicum Spp.; 1.12 kg/h): 1 (25-49)
herbicidal rating (Panicum Spp.; 5.60 kg/h): 2 (50-74)
herbicidal rating (Crabgrass; 0.28 kg/h): 3 (75-100)
herbicidal rating (Crabgrass; 1.12 kg/h): 2 (50-74)
herbicidal rating (Crabgrass; 5.60 kg/h): 3 (75-100)
herbicidal rating (Hemp Sesbania; 0.28 kg/h): 1 (25-49)
herbicidal rating (Hemp Sesbania; 1.12 kg/h): 3 (75-100)
herbicidal rating (Hemp Sesbania; 5.60 kg/h): 2 (50-74)
herbicidal rating (Soybean; 0.28 kg/h): 0 (0-24)
herbicidal rating (Soybean; 1.12 kg/h): 1 (25-49)
herbicidal rating (Soybean; 5.60 kg/h): 3 (75-100)
herbicidal rating (Sugarbeet; 0.28 kg/h): 1 (25-49)
herbicidal rating (Sugarbeet; 1.12 kg/h): 2 (50-74)
herbicidal rating (Sugarbeet; 5.60 kg/h): 2 (50-74)
herbicidal rating (Sorghum; 0.28 kg/h): 0 (0-24)
herbicidal rating (Sorghum; 1.12 kg/h): 1 (25-49)
herbicidal rating (Sorghum; 5.60 kg/h): 3 (75-100)
herbicidal rating (Cocklebur [1]): 1 (25-49)
herbicidal rating (Morningglory [2]): 2 (50-74)
herbicidal rating (Barnyardgrass [3]): 2 (50-74)
herbicidal rating (Downy Brome [4]): 0 (0-24)
herbicidal rating (Quackgrass [5]): 1 (25-49)
herbicidal rating (Johnsongrass [6]): 1 (25-49)
herbicidal rating (Lambsquarters [7]): 1 (25-49)
herbicidal rating (Canada Thistle [8]): 2 (50-74)
herbicidal rating (Yellow Nutsedge [9]): 0 (0-24)
herbicidal rating (Velvetleaf [10]): 1 (25-49)
herbicidal rating (Smartweed [11]): 2 (50-74)
herbicidal rating (Cocklebur [12]; 2 WAT, 0.28 kg/h): 0 (0-24)
herbicidal rating (Cocklebur [12]; 2 WAT, 1.12 kg/h): 0 (0-24)
herbicidal rating (Cocklebur [12]; 2 WAT, 5.60 kg/h): 1 (25-49)
herbicidal rating (Cocklebur [12]; 4 WAT, 11.2 kg/h): 1 (25-49)
herbicidal rating (Morningglory [13]; 2 WAT, 0.28 kg/h): 1 (25-49)
herbicidal rating (Morningglory [13]; 2 WAT, 1.12 kg/h): 1 (25-49)
herbicidal rating (Morningglory [13]; 2 WAT, 5.60 kg/h): 3 (75-100)
herbicidal rating (Morningglory [13]; 4 WAT, 11.2 kg/h): 3 (75-100)
herbicidal rating (Barnyardgrass [14]; 2 WAT, 0.28 kg/h): 3 (75-100)
herbicidal rating (Barnyardgrass [14]; 2 WAT, 1.12 kg/h): 3 (75-100)
herbicidal rating (Barnyardgrass [14]; 2 WAT, 5.60 kg/h): 3 (75-100)
herbicidal rating (Barnyardgrass [14]; 4 WAT, 11.2 kg/h): 3 (75-100)
herbicidal rating (Downy Brome [15]; 2 WAT, 0.28 kg/h): 2 (50-74)
herbicidal rating (Downy Brome [15]; 2 WAT, 1.12 kg/h): 1 (25-49)
herbicidal rating (Downy Brome [15]; 2 WAT, 5.60 kg/h): 3 (75-100)
herbicidal rating (Downy Brome [15]; 4 WAT, 11.2 kg/h): 3 (75-100)
herbicidal rating (Quackgrass [16]): 2 (50-74)
herbicidal rating (Johnsongrass [17]): 0 (0-24)
herbicidal rating (Lambsquarters [18]; 2 WAT, 0.28 kg/h): 3 (75-100)
herbicidal rating (Lambsquarters [18]; 2 WAT, 1.12 kg/h): 3 (75-100)
herbicidal rating (Lambsquarters [18]; 2 WAT, 5.60 kg/h): 3 (75-100)
herbicidal rating (Lambsquarters [18]; 4 WAT, 11.2 kg/h): 2 (50-74)
herbicidal rating (Canada Thistle [19]): 3 (75-100)
herbicidal rating (Yellow Nutsedge [20]): 1 (25-49)
herbicidal rating (Velvetleaf [21]; 2 WAT, 0.28 kg/h): 0 (0-24)
herbicidal rating (Velvetleaf [21]; 2 WAT, 1.12 kg/h): 0 (0-24)
herbicidal rating (Velvetleaf [21]; 2 WAT, 5.60 kg/h): 2 (50-74)
herbicidal rating (Velvetleaf [21]; 4 WAT, 11.2 kg/h): 1 (25-49)
herbicidal rating (Smartweed [22]; 2 WAT, 0.28 kg/h): 3 (75-100)
herbicidal rating (Smartweed [22]; 2 WAT, 1.12 kg/h): 3 (75-100)
herbicidal rating (Smartweed [22]; 2 WAT, 5.60 kg/h): 3 (75-100)
herbicidal rating (Smartweed [22]; 4 WAT, 11.2 kg/h): 3 (75-100)
